The values that follow come from PMC3486884 (PLoS Pathogens, 2012).

The term pKa denotes the negative logarithm of the acid dissociation constant. What is called IC50 is the concentration at which inhibition is half-maximal. By IC90 is commonly meant the point of the concentration-response curve where the effect stands at 90%.

Like-named read-outs stand apart in the source and are kept apart here.

Data set [1] deals with v-ATPase (Bos taurus, UniProt P23956). Put plainly: v-ATPase inhibition assay (Pi production in clathrin-coated vesicles). Conditions: bovine brain clathrin-coated vesicles.
Method: Cow brain CCV were prepared as described [59], diluted in assay buffer (200 mM sucrose, 50 mM KCl, 10 mM HEPES pH7, 1 mM EDTA, 5 µM nigericin, 10 µg/ml oligomycin, 1 mM vanadate) and incubated with the respective compounds at 4°C for 30 min. ATP (10 µl 2 mM ATP and 40 mM MgCl2) were added and the samples incubated at 37°C for 15 min. Production of inorganic phosphate (Pi) was measured with the Sensolyte MG phosphate assay kit according to the manufacturers protocols (AnaSpec).
In data set [2] the test system is HRV1A. Nature of the data set: Full cycle infectivity assay (virus titer, TCID50). It counts as cell-based, human rhinovirus. Conditions: full cycle assays; BafA1 (0.5 nM), alone or drug combination.
Data set [3] concerns clathrin-coated vesicles (CCV). Nature of the data set: Acridine orange measurements in clathrin-coated vesicles. Conditions: AO red fluorescence assay.
Method: CCV suspended in assay buffer (10 mM HEPES, pH7, 100 mM KCl, 1 mM EDTA) were incubated with 1 mM ATP, 2 µM AO (Molecular Probes). The ATPase reaction was initiated by adding MgCl2 to 1 mM and fluorescence was determined at 492/540 nm in a plate reader (Tecan, Männedorf, Switzerland) at room temperature after 10 min. BafA1 and samples without MgCl2 were used as controls.
The conditions of data set [4]: nitazoxanide; cited from earlier work.
In data set [5] the test system is HRV1A. The settings on record: n=2.
Data set [6] relates to HRV2. The settings on record: HRV2, normalized to DMSO control (1), n=2, Figure S7A.
In data set [7] the test system is CVB4. Nature of the data set: microbe, parasite or virus in culture. Conditions: Enterovirus B, CVB4, HeLa, read-out: IC50 (CVB4).
The subject of data set [8] is HRV14. The settings on record: HRV14, normalized to DMSO control (1), n=2, Figure S7A.
Data set [9] deals with CVB3. Conditions: n=2.
Data set [10] relates to HRV14. Put plainly: microbe, parasite or virus in culture. Conditions: Human rhinovirus sp., HRV14, HeLa, read-out: IC50 (HRV14).
Data set [11] deals with HRV16. Conditions: HRV16, normalized to DMSO control (1), n=2, Figure S7A.
Data set [12] has as its system HRV1A. Nature of the data set: microbe, parasite or virus in culture. Conditions: Human rhinovirus sp.
In data set [13] the test system is influenza virus (strain A/Puerto Rico/8/34/H1N1 depicted PR8). Nature of the data set: microbe, parasite or virus in culture. The settings on record: unidentified influenza virus, A549, read-out: IC50 (PR8).
In data set [14] the test system is CVB4. Conditions: CVB4, normalized to DMSO control (1), n=2, Figure S7A.
For data set [15], the system named is HRV16. Put plainly: microbe, parasite or virus in culture. Conditions: Human rhinovirus sp., HRV16, HeLa, read-out: IC50 (HRV16).
For data set [16], the system named is CVA21. Conditions: CVA21, normalized to DMSO control (1), n=2, Figure S7A.
Data set [17] deals with HRV2. Nature of the data set: microbe, parasite or virus in culture. The settings on record: Human rhinovirus sp., HRV2, HeLa, read-out: IC50 (HRV2).
For data set [18], the system named is CVA21. Put plainly: microbe, parasite or virus in culture. Conditions: Coxsackievirus, CVA21, HeLa, read-out: IC50 (CVA21).
Data set [19] has as its system hepatitis C virus. Conditions: cited from earlier work.

For the compound `CO/C1=C\C(C)=C\[C@@H](C)[C@@H](O)[C@@H](C)C/C(C)=C/C=C/[C@H](OC)[C@@H]([C@@H](C)[C@@H](O)[C@H](C)[C@@]2(O)C[C@@H](O)[C@H](C)[C@@H](C(C)C)O2)OC1=O` [BafA1, bafilomycin A1], in data set [1], the “v-ATPase activity (ATP hydrolysis, production of Pi)” value is recorded as “completely blocked the production of Pi”. In [2], the “decrease of virus titers” value is “about five-fold”. The “pH of isolated CCV” value in data set [3] is recorded as “neutralized the pH of CCV in a dose-dependent manner”.

For `CC(=O)Oc1ccccc1C(=O)Nc1ncc([N+](=O)[O-])s1` [Nitazoxanide, nitazoxanide], the pKa in [4] is given as 5.8.

For the compound `O=C(Nc1ccc([N+](=O)[O-])cc1Cl)c1ccccc1O` [TVB-1332], the relative infection in data set [5] (0.1 µM) turned out to be 0.99; in [5] (0.3 µM) it was 1.01; in data set [5] (0.9 µM), 0.97; in [5] (2.8 µM), 0.61; in [5] (8.3 µM), 0.04; in data set [5] (25.0 µM), 0.02. For the same compound, the relative infection worked out at 0.94 in data set [6] (0.1 µM); 0.97 in data set [6] (0.3 µM); 0.95 in data set [6] (0.9 µM); 0.38 in data set [6] (2.8 µM); 0.01 in [6] (8.3 µM); 0.01 in data set [6] (25.0 µM). Moreover, the relative infection in data set [8] (0.1 µM) is 0.91; in data set [8] (0.3 µM) it was 0.96; in [8] (0.9 µM), 0.82; in data set [8] (2.8 µM) it was 0.47; in data set [8] (8.3 µM) it was 0.09; in data set [8] (25.0 µM), 0.05. Also, the relative infection in data set [9] (0.1 µM) is 1.01; in [9] (2.8 µM), 1.08; in data set [9] (CVB3, 0.3 µM, normalized to DMSO control (1), Figure S7A), 1.11; in data set [9] (CVB3, 0.9 µM, normalized to DMSO control (1), Figure S7A) it was 1.07; in data set [9] (CVB3, 8.3 µM, normalized to DMSO control (1), Figure S7A), 1.05; in data set [9] (CVB3, 25.0 µM, normalized to DMSO control (1), Figure S7A) it was 1.15. In addition, the relative infection in [11] (0.1 µM) is given as 0.98; in [11] (0.3 µM), 0.95; in data set [11] (0.9 µM), 0.94; in data set [11] (2.8 µM), 0.66; in data set [11] (8.3 µM), 0.14; in [11] (25.0 µM), 0.07. The relative infection in data set [14] (0.1 µM) was determined as 1.10; in [14] (0.3 µM) it was 1.16; in data set [14] (0.9 µM), 1.25; in data set [14] (2.8 µM), 0.86; in data set [14] (8.3 µM), 0.34; in data set [14] (25.0 µM) it was 0.33. Also, the relative infection in data set [16] (0.1 µM) was found to be 0.91; in [16] (0.3 µM), 0.95; in data set [16] (0.9 µM), 0.93; in data set [16] (2.8 µM), 1.02; in [16] (8.3 µM), 0.81; in data set [16] (25.0 µM) it was 0.20. Further, the IC50 was 8.01 µM in data set [7]; 2.47 µM in data set [10]; 3.19 µM in data set [12] (HeLa, read-out: IC50 (HRV1A)); about 2.7 µM in data set [13]; 3.74 µM in [15]; 2.36 µM in data set [17]. In addition, the IC50 in data set [18] amounted to 14.7 µM. Besides, in [12] (M-HeLa, 7 h, read-out: HRV1A infection (dsRNA), 0.03 µM), the activity at 0.03 µM was 108%. Also, in data set [12] (M-HeLa, 7 h, read-out: HRV1A infection (dsRNA), 0.10 µM), the activity at 0.1 µM was determined as 98%. Further, in data set [12] (M-HeLa, 7 h, read-out: HRV1A infection (dsRNA), 0.31 µM), the activity at 0.31 µM is 96%. Besides, the activity at 0.93 µM in data set [12] (M-HeLa, 7 h, read-out: HRV1A infection (dsRNA), 0.93 µM) was found to be 88%. The activity at 2.78 µM in [12] (M-HeLa, 7 h, read-out: HRV1A infection (dsRNA), 2.78 µM) is 44%. Besides, the activity at 8.33 µM in data set [12] (M-HeLa, 7 h, read-out: HRV1A infection (dsRNA), 8.33 µM) was 5%. The activity at 25 µM in data set [12] (M-HeLa, 7 h, read-out: HRV1A infection (dsRNA), 25.00 µM) was 4%.

For `CCN(CC)CCCC(C)Nc1ccnc2cc(Cl)ccc12` (stereo not drawn) [chloroquine], the IC90 in [19] was 20 µM.

Turning to `C/C=C/[C@H]1O[C@@](O)([C@@H](C)[C@H](O)[C@H](C)[C@H]2OC(=O)/C(OC)=C/C(C)=C/[C@@H](C)[C@@H](O)[C@@H](CC)[C@@H](O)[C@H](C)C/C(C)=C/C=C/[C@@H]2OC)C[C@@H](O[C@H]2C[C@@H](O)[C@H](OC(N)=O)[C@@H](C)O2)[C@@H]1C` [concanamycin A], the “v-ATPase activity (ATP hydrolysis, production of Pi)” value in [1] is “completely blocked the production of Pi”. For the same compound, the “pH of isolated CCV” value in data set [3] is “neutralized the pH of CCV in a dose-dependent manner”.
